The results in this text go back to US11602540B2, “Method for stimulating blood flow in a penile region of a patient” (BMR MEDICAL LLC, priority 2016, dated 2023).

Molecules are shown by their SMILES.

This experiment can be described thus: treatment of diffuse plaque by carbon dioxide injection into affected corpus tissues. The format is in vivo, patient. The following applies: injection directly into affected corpus tissues. The text has this:
In addition to the above treatment method embodiments, Applicants have discovered that injection(s) of carbon dioxide is/are also effective to treat a condition related to Peyronie's disease known as “diffuse plaque” comprising plaque that has not assimilated into any hardened singular construct within the penis, but remains in a “diffuse” state throughout. The preferred treatment method is injection(s) of carbon dioxide directly into the affected corpus tissues to treat the diffuse plaque. This form of carbon dioxide injection treatment may be continued until the diffuse plaque has been sufficiently mitigated or eliminated. Preferably, if more than one carbon dioxide injection is required, then the second injection location is optimally spaced away from the location of the first carbon dioxide injection. As above, the “dose” of each carbon dioxide injection(s) is considered to be “therapeutically effective” which is defined as described above in conjunction with “carboxy therapy”.
FIG. 10 illustrates one method 900 for treating diffuse plaque using the above-described method steps. Thus, the “diffuse plaque” condition is identified or diagnosed within at least one corpus cavernosa at 902. […] After the initial round of administration/injection(s) of carbon dioxide is complete, the results may be assessed to see if the plaque is mitigated at 908. […]

In the case of `O=C=O` [carbon dioxide], the “effectiveness in treating diffuse plaque” value is “effective”.
